In PubChem BioAssay (NCI):
Values joined by “and” are separate entries in the source; they are usually repeats but may differ in a detail not shown here. Identical values can stand only once.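 1) Cells in 96-well plates. 2) Compound, 48 h, 5 concentrations. 3) Linear interpolation between surrounding doses. 4) Unreached endpoint = highest concentration. GI50 is the concentration that inhibits growth by half. The concentration for full growth arrest is given as TGI.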

How the values were obtained:
Assay in all cases: growth of human tumour cells (NCI), 48 h
CAKI-1 renal = system: CAKI-1 renal
CCRF-CEM leukemia = system: CCRF-CEM leukemia
HCT-116 colon = system: HCT-116 colon
HT29 colon = system: HT29 colon
IGROV1 ovarian = system: IGROV1 ovarian
KM12 colon = system: KM12 colon
NCI-H23 lung = system: NCI-H23 lung
SW-620 colon = system: SW-620 colon
TK-10 renal = system: TK-10 renal
U251 CNS = system: U251 CNS

| SMILES | GI50 (CAKI-1 renal) [µM] | TGI (CAKI-1 renal) [µM] | GI50 (CCRF-CEM leukemia) [µM] | TGI (CCRF-CEM leukemia) | GI50 (HCT-116 colon) [µM] | TGI (HCT-116 colon) | GI50 (HT29 colon) [µM] | TGI (HT29 colon) [µM] | GI50 (IGROV1 ovarian) [µM] | TGI (IGROV1 ovarian) [µM] | GI50 (KM12 colon) [µM] | TGI (KM12 colon) | GI50 (NCI-H23 lung) [µM] | TGI (NCI-H23 lung) | GI50 (SW-620 colon) [µM] | TGI (SW-620 colon) | GI50 (TK-10 renal) [µM] | TGI (TK-10 renal) [µM] | GI50 (U251 CNS) [µM] | TGI (U251 CNS) |
| --- | --- | --- | --- | --- | --- | --- | --- | --- | --- | --- | --- | --- | --- | --- | --- | --- | --- | --- | --- | --- |
| COc1cc(C(C)c2cc3c(cc2OCCOCCOc2cc4c(cc2C(C)c2cc(OC)c(OC)c(OC)c2)OCO4)OCO3)cc(OC)c1OC (stereo not given) | > 100 | > 100 | > 100 | > 100 µM | > 100 | > 100 µM | > 100 | > 100 | > 100 | > 100 | > 100 | > 100 µM | > 100 | > 100 µM | > 100 | > 100 µM | > 100 | > 100 | > 100 | > 100 µM |
| COc1ccc(CNCCCN2C(=O)c3ccc4c5c(ccc(c35)C2=O)C(=O)N(CCCNCCCCNCCCN)C4=O)c(OC)c1OC | 4.49 | 44.9 | 1.94 | 17.8 µM | 0.534 | 3.77 µM | 0.452 | 3.23 | 1.54 | 12.5 | 1.27 | 7.53 µM | 1.35 | 4.22 µM | 0.448 | 2.52 µM | 2.71 | 12.8 | 0.63 | 2.97 µM |
| C=C(C)[C@@H]1CC[C@]2(C)[C@H](CC=C3[C@@H]4CC(C)(C)CC[C@]4(C(=O)OC)CC[C@]32C)[C@@]1(C)CC/C(N)=N/O | 2.4 | 15.1 | 2.19 | 6.2 µM | 1.61 | 3.05 µM | 1.88 | 5.11 | 2.05 | 6.09 | 1.68 | 3.6 µM | 2.84 | 10.1 µM | 1.88 | 4.32 µM | 3.66 | 18.6 | 1.81 | 3.69 µM |
| CCCCCCCCOC(=O)c1cc(O)c(O)c(O)c1 | 0.644 | 3.52 | 0.314 | > 42.8 µM | 1.97 | 12.9 µM | 14.8 | 47.6 | 0.913 | 4.88 | 2.9 | 17.4 µM | 2.63 | 11.5 µM | 2.87 | 19.4 µM | 3.77 | > 62.6 | 3.02 | 28.6 µM |
| CCOc1ccc2c(-c3ccnc(Nc4cccc(C(F)(F)F)c4)n3)cnn2n1 | > 14.7 | > 25 | > 25 | > 25 µM | 6.04 | 15.2 µM | 10.1 | > 25 | 10.9 | > 25 | 5.07 | 14 µM | 6.97 | > 20 µM | > 25 | > 25 µM | 9.72 | > 23.8 | 6.43 | > 22.5 µM |
| O=C1c2ccccc2C(=O)c2c1c(NCCNCCO)c1cc[nH]c1c2NCCNCCO | > 47.1 | > 100 | 1.04 | – | 1.27 | > 21.5 µM | 2.78 | > 41.4 | 9.23 | > 100 | 4.34 | > 39.9 µM | 7.9 | > 27.9 µM | 3.28 | 25.9 µM | 6.04 | 44.9 | 0.739 | 19.7 µM |
| COc1cccc(C(=O)O)c1Cc1cccc2ccccc12 | – | > 100 | – | > 100 µM | – | > 100 µM | – | > 100 | – | > 100 | – | > 100 µM | – | > 100 µM | – | > 100 µM | – | > 100 | – | > 100 µM |
| COc1cc(C)c(N(C)C(=O)CN(C)C)cc1Nc1nc(Nc2cccc(F)c2C(N)=O)c2cc[nH]c2n1 | > 23.9 | > 25 | > 19.3 | > 25 µM | 15.7 | > 25 µM | 1.37 | > 25 | > 25 | > 25 | > 25 | > 25 µM | > 25 | > 25 µM | > 22.4 | > 25 µM | > 22 | > 25 | > 25 | > 25 µM |
| COc1ccc(-c2ccc(=O)oc2-c2cc(OC)c(OC)c(OC)c2)cc1O | 0.0459 | > 100 | 0.0219 | – | 0.0242 | > 100 µM | 0.663 | – | < 0.01 | – | < 0.0248 | > 35.8 µM | 0.0689 | > 100 µM | < 0.0147 | > 100 µM | 62.3 | > 100 | 0.0286 | > 100 µM |
| CN([N-]C(=O)CC(=O)[N-]N(C)C(=S)c1ccccc1)C(=S)c1ccccc1.[Cu+2] | 0.0459 | 0.159 | < 0.01 | 0.121 µM | < 0.01 | 0.014 µM | – | 0.0275 | < 0.01 | 0.0406 | 0.0353 | 0.152 µM | 0.0241 | 0.141 µM | 0.0206 | 0.108 µM | 0.0461 | 0.174 | 0.0331 | 0.125 µM |
| NCC(=O)OCN1C(=O)C2C3C=CC(C2C1=O)C1C2C(=O)N(COC(=O)CN)C(=O)C2C31 (stereo not given) | – | > 100 | – | 52.6 µM and 49.8 µM | – | 33.6 µM and 30.7 µM | – | > 100 | – | > 100 | – | 48.4 µM and 42.2 µM | – | 49.1 µM and 84.7 µM | – | 44.7 µM and 54.2 µM | – | > 100 | – | 45 µM and 38.7 µM |
| C=CC1(C)/C(=N\O)C(C)(CC)C(=O)N1O (stereo not given) | – | > 100 | – | > 100 µM | – | > 100 µM | – | > 100 | – | > 100 | – | > 100 µM | – | > 100 µM | – | > 100 µM | – | > 100 | – | > 100 µM |
| C=C(C)[C@@H]1CC[C@]2(c3ncc(C)o3)CC[C@]3(C)[C@H](CC[C@@H]4[C@@](C)(CCC#N)[C@H](C(=C)C)CC[C@]43C)[C@@H]12 | 2.8 | 16.1 | 2.93 | 10.2 µM | 4.41 | 16.4 µM | 3.81 | 14.8 | 5.07 | 19.1 | 3.89 | 15.1 µM | 6.54 | 21.4 µM | 5.81 | 20.8 µM | 14 | 28.2 | 3.54 | 13.6 µM |
| O=c1c2cc(-c3ccccc3)sc2nc2sc(-c3ccccc3)nn12 | – | > 100 | – | > 100 µM | – | > 100 µM | – | > 100 | – | > 100 | – | > 100 µM | – | > 100 µM | – | > 100 µM | – | > 100 | – | > 100 µM |
